Assay results published in PMC7821181, “MS Binding Assays for Glycine Transporter 2 (GlyT2) Employing Org25543 as Reporter Ligand” (Chemmedchem, 2020).
“And” between values parts separate entries of the source, which are not always exact repeats. Equal entries are not always repeated. “Also recorded” adds a separate entry of the source.

Columns and labels:
GlyT2 [1] = test system: GlyT2; parameters: method as in PMID 15964938; conditions: ref 27; read-out: IC50 in FLIPR membrane potential assay; cited from earlier work
hGlyT2 = biological target: T1, hGlyT2 (Homo sapiens, UniProt Q9Y345); test: GlyT2 MS Binding Assays: kinetic (dissociation and association) experiments
T1 construct: host or cells: HEK293 cells stably expressing hGlyT2; crude membrane fractions
T1 sequence (Q9Y345 1-797): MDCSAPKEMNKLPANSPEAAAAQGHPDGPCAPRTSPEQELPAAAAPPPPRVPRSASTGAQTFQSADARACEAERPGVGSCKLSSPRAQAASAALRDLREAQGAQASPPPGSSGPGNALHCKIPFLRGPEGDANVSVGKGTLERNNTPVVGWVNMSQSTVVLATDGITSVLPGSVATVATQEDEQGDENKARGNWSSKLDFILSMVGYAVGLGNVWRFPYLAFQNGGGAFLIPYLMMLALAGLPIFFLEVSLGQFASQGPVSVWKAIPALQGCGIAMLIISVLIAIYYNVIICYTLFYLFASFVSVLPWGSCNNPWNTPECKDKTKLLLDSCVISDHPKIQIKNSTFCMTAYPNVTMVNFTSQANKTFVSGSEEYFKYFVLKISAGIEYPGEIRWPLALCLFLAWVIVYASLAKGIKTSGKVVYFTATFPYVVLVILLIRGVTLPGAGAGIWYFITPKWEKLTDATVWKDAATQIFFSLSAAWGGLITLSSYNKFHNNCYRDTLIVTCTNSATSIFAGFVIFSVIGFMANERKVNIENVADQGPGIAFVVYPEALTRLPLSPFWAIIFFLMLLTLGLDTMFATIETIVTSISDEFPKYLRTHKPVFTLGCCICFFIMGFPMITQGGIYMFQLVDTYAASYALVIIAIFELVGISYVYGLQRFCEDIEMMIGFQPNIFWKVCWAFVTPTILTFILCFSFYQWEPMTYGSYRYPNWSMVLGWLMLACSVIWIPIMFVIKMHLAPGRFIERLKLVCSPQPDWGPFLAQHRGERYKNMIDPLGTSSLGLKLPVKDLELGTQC
Procedure: For the determination of the dissociation rate constant of Org25543 the so‐called displacer method was applied. Thus, after the target protein GlyT2 had been incubated with the reporter ligand Org25543 at a defined concentration (final concentration: 10 nM) and the binding allowed to reach equilibrium (1 h) dissociation was initiated by addition of 8 (final concentration: 30 μM). Overall, 12 samples were taken, the first after 15 s and the last after 3 h, and processed as described for competitive binding experiments. The same way nonspecific binding was determined except that the target protein had been subjected to a heat‐shock before. Plotting of specific binding calculated from total and nonspecific binding against time yielded the respective dissociation curves.
Next, for the determination of the association kinetics of Org25543 association experiments had to be performed. By the knowledge of [L] and k off, from k obs as the primary result of such experiments, finally, the derived rate constant k on becomes accessible by using the relation given at Equation 1, the transformed form of which is Equation 2. (1) kobs=kon×L+koff (2) kon=(kobs-koff)/L
For the determination of k obs Org25543 was added to the target protein, to start the association process, which was then stopped at eleven different time points (15 s–2 h), to measure the amount of bound marker at these defined time points. The nonspecific binding was determined for the same time points like for total binding samples but utilizing target material that had been subjected to a heat‐shock before. The concentration of the reporter ligand Org25543 was set to a value of 10 nM. […] For the establishment of association curves specific binding calculated from total binding and nonspecific binding was plotted against time.
Dissociation experiments via displacing Org25543 from GlyT2 with an excess of competitor were performed in 25 mL round bottom flasks made of glass (Duran Wheaton Kimble Life Sciences GmbH, Wertheim, Germany). For determining dissociation rate constants by the displacer approach GlyT2 membrane fractions were pre‐incubated with Org25543 at a nominal concentration of 10 nM at 37 °C in a water bath for 1 h in a total volume of 24.85 mL. The solution and the water bath were stirred constantly with magnetic stir bars at a frequency of ∼500 rpm. After 1 h of incubation dissociation was initiated by adding 150 μL of 8 resulting in […] of 30 μM. After defined time points (15 s–3 h, twelve dissociation time points, samples for each time point were prepared in triplicates) dissociation was terminated via vacuum filtration and the samples were treated the same way as described in Experimental Section MS Binding Assay: General procedure. Nonspecific binding was determined at the same time points as for the dissociation samples but incubating 10 nM Org25543 in the presence of 30 μM 8 and heat‐shocked GlyT2 membrane preparations (triplicate).

GlyT2 [2] = biological target: T2, GlyT2 (Homo sapiens, UniProt Q9Y345); test: preliminary Org25543 saturation experiments in absence or presence of glycine; type: binding; conditions: for Bmax in relation to control without glycine (100 %) / Kd in relation to control without glycine (100 %): mean ± SD, two experiments
T2 construct: host or cells: HEK293 cells stably expressing hGlyT2; crude membrane fractions
T2 sequence (Q9Y345 1-797): T1 sequence (Q9Y345 1-797)
Procedure: glass fiber, 1.0 µm, 350 µL; Pall Corporation, Port Washington, NY, USA) were washed with water (3 x 200 µL) and methanol (3 x 200 µL) and subsequently pre-incubated for 2 h at room temperature with 0.5 % polyethylenimine (PEI). […]
KCl, 1 mM MgCl2, 1 mM CaCl2, pH 7.5) in polypropylene 96 well plates (1.2 mL well volume, Sarstedt, Nümbrecht, Germany) in total volume of 250 µL at 37 °C in a shaking water bath. After the incubation times for the filters and incubation samples had been expired, PEI was removed from the filters by vacuum filtration and 210 µL aliquots of the incubation samples were transferred on the filters and were removed by vacuum filtration as well. The filters were washed with ammonium ac etate buffer (3 x 200 µL, 154 mM, pH 7.4) and were dried at 50 °C for 1 h. After that the remaining Org25543 on the filters were washed down with acetonitrile (3 x 70 µL) containing [ 2H7]Org25543 (125 pM) and 52.5 µL ammonium bicarbonate buffer (5 mM, pH 7.8) was added to the samples to adjust the sample solvent to the mobile phase (5 mM ammonium bicarbonate buffer ( pH 7.8)/acetonitrile ( 20:80, v/v)). Finally, the samples were subjected to LC-ESI-MS/MS quantification without further sample preparation. […]
Investigating the inhibition mode of glycine in preliminary Org25543 saturation […]
In these preliminary experiments saturation experiments were performed in the same way as it is described in the Material and methods part except that Org25543 and GlyT2 were incubated either in the absence of glycine or in the presence of 2, 20 or 200 mM glycine. The saturation isotherms of a representative experiment are depicted […]
(control) in all experiments and Kd and Bmax values determined in the presence of the […]

Q: With `COc1cc(C(=O)NCC2(N(C)C)CCCC2)cc(OC)c1OCc1ccccc1` [Org25543, N‐[[1‐(dimethylamino)cyclopentyl]methyl]‐3,5‐dimethoxy‐4‐(phenylmethoxy)benzamide] as the compound, how does the IC50 (GlyT2 [1]) read?
A: 31 ± 6 nM

Q: And the Kd (hGlyT2)?
A: 6.99 nM

Q: What about the “k obs (observed association rate constant)” value (hGlyT2; Org25543 10 nM, 37 °C, mean±SEM, n=3) of the same compound?
A: 1.72±0.01×10^−2 s^−1 and 1.72×10^−2 s^−1

Q: What about the koff (hGlyT2; Org25543 10 nM, displacement by 30 μM 8, 37 °C, mean±SEM, n=3, read-out: k off (dissociation rate constant)) of the same compound?
A: 0.00707 s⁻¹

Q: What about the kon (hGlyT2; calculated as (k obs−k off)/L, read-out: k on (association rate constant)) of the same compound?
A: 1.01e+06 M⁻¹ s⁻¹

Q: What about the “reversibility of binding at GlyT2, in words” value (hGlyT2; dissociation experiments) of the same compound?
A: fully reversible; also recorded: full reversibility

Q: What about the “Bmax in relation to control without glycine (100 %)” value (GlyT2 [2]; 2 mM glycine) of the same compound?
A: 106 ± 13%

Q: What about the “Kd in relation to control without glycine (100 %)” value (GlyT2 [2]; 2 mM glycine) of the same compound?
A: 129 ± 24%

Q: And the “Bmax in relation to control without glycine (100 %)” value (GlyT2 [2]; 20 mM glycine)?
A: 101 ± 12%

Q: And the “Kd in relation to control without glycine (100 %)” value (GlyT2 [2]; 20 mM glycine)?
A: 222 ± 56%

Q: What about the “Kd in relation to control without glycine (100 %)” value (GlyT2 [2]; 200 mM glycine) of the same compound?
A: 814 ± 154%

Q: What about the “B max (representative preliminary saturation experiment)” value (“B max” for short) (GlyT2 [2]; in the presence of 2 mM glycine) of the same compound?
A: 9.75 pmol (mg protein)-1

Q: And the “B max” value (GlyT2 [2]; in the presence of 20 mM glycine)?
A: 9.24 pmol (mg protein)-1

Q: What about the “B max” value (GlyT2 [2]; in the presence of 200 mM glycine) of the same compound?
A: 8.74 pmol (mg protein)-1

Q: And the “B max” value (GlyT2 [2]; without glycine)?
A: 8.45 pmol (mg protein)-1

Q: And the Kd (GlyT2 [2]; without glycine, read-out: K d of Org25543 (representative preliminary saturation experiment))?
A: 5.18 nM
